We go through 6 compounds from paper PMC2680649 (International Journal of Molecular Sciences, 2009).

Like-named read-outs stand apart in the source and are kept apart here.

One series concerns the target T1, hER-β (Homo sapiens, UniProt Q92731).
T1 construct: expressed in transfected cells; host or cells: HELN (HeLa carrying a stably transfected estrogen-responsive luciferase reporter)
As to the kind of experiment: cell-based. To be noted: read-out: EC50, half-maximal luciferase activity, transcriptional activation through ER β.

The next series concerns the target T2, hER-α (Homo sapiens, UniProt P03372).
T2 construct: expressed in transfected cells; host or cells: HELN (HeLa carrying a stably transfected estrogen-responsive luciferase reporter)
Briefly: cell-based. The format is cell-based.

The next series concerns human ERβ. Details: method as in PMID 9751507. Particulars: cells transfected with human ERβ; cited from earlier work.
A further series has as its system human ERα. Details: method as in PMID 9751507. Particulars: cells transfected with human ERα; cited from earlier work.
Another series deals with cytochrome P450. The format is in vitro ADME, rat.
A short description of series [1]: In vitro metabolism of zearalenone, human male liver microsomal preparation. Particulars: Human Male liver microsomes, 1 μM total P450, 50 μM ZEN, NADPH-generating system, pH 7.4, 30 min; n = 4. The format is in vitro ADME. An excerpt:
(§1) Monkeys (Cynomolgus, Macaca fascicularis), pig (Yucatan), dog (Beagle), rabbit (New Zealand), mouse (CD-1) and rat (Sprague Dawley) liver microsomes, rat 2C Supersomes® were purchased from Gentest (BD Biosciences, NJ, USA). Pools of human livers for female or male were purchased from Xenotech (Tebu-Bio, Le Perray en Yvelines, France). Human CYP Bactosomes® were provided by Cypex (Tebu-Bio, Le Perray en Yvelines, France).

The nature of series [2]: In vitro metabolism of zearalenone, pig liver microsomal preparation. To be noted: Pig liver microsomes, 1 μM total P450, 50 μM ZEN, NADPH-generating system, pH 7.4, 30 min; n = 4. The format is in vitro ADME, pig (Yucatan).
Excerpt: as §1

Series [3] is described as follows: In vitro metabolism of zearalenone, human female liver microsomal preparation. The format is in vitro ADME. Particulars: Human Female liver microsomes, 1 μM total P450, 50 μM ZEN, NADPH-generating system, pH 7.4, 30 min; n = 4.
Excerpt: as §1

Series [4] in a line: In vitro metabolism of zearalenone, mouse liver microsomal preparation. The format is in vitro ADME, mouse (CD-1). Particulars: Mouse liver microsomes, 1 μM total P450, 50 μM ZEN, NADPH-generating system, pH 7.4, 30 min; n = 4.
Excerpt: as §1

A short description of series [5]: In vitro metabolism of zearalenone, Cynomolgus monkey liver microsomal preparation. Type of series: in vitro ADME, Macaca fascicularis. To be noted: Cynomolgus monkey liver microsomes, 1 μM total P450, 50 μM ZEN, NADPH-generating system, pH 7.4, 30 min; n = 4.
Excerpt: as §1

Series [6] can be described thus: In vitro metabolism of zearalenone, rabbit liver microsomal preparation. To be noted: Rabbit liver microsomes, 1 μM total P450, 50 μM ZEN, NADPH-generating system, pH 7.4, 30 min; n = 4. The format is in vitro ADME, rabbit (New Zealand).
Excerpt: as §1

Series [7] in a line: ZEN incubation with rat liver cytosolic fraction. To be noted: rat liver cytosol, presence of NADPH.
Series [8] in a line: In vitro metabolism of zearalenone, dog liver microsomal preparation. To be noted: Dog liver microsomes, 1 μM total P450, 50 μM ZEN, NADPH-generating system, pH 7.4, 30 min; n = 4. The format is in vitro ADME, dog (Beagle).
Excerpt: as §1

The nature of series [9]: In vitro metabolism of zearalenone, rat liver microsomal preparation. Particulars: Rat (untreated) liver microsomes, 1 μM total P450, 50 μM ZEN, NADPH-generating system, pH 7.4, 30 min; n = 4. The format is in vitro ADME, rat (Sprague Dawley).
Excerpt: as §1

A short description of series [10]: In vitro metabolism of zearalenone, PB-treated rat liver microsomal preparation. To be noted: PB-treated rat liver microsomes, 1 μM total P450, 50 μM ZEN, NADPH-generating system, pH 7.4, 30 min; n = 4.
A short description of series [11]: ZEN incubation with rat liver post-mitochondrial fraction (S9).

T2 sequence (P03372 whole entry): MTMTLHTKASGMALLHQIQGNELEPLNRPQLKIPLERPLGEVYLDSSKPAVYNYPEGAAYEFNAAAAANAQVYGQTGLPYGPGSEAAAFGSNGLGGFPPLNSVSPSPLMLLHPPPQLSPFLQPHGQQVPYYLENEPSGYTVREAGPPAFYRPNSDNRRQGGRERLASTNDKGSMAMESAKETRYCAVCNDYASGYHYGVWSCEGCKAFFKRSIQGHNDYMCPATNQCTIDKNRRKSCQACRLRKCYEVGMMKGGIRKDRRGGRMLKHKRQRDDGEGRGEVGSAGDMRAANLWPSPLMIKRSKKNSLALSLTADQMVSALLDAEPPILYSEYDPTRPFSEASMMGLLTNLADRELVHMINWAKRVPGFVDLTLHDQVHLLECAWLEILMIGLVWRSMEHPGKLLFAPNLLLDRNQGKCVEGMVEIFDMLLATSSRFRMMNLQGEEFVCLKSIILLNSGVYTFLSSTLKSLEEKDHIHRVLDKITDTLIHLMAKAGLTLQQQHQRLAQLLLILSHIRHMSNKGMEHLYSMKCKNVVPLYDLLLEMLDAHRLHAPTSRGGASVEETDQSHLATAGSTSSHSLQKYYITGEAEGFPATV
T1 sequence (Q92731 whole entry): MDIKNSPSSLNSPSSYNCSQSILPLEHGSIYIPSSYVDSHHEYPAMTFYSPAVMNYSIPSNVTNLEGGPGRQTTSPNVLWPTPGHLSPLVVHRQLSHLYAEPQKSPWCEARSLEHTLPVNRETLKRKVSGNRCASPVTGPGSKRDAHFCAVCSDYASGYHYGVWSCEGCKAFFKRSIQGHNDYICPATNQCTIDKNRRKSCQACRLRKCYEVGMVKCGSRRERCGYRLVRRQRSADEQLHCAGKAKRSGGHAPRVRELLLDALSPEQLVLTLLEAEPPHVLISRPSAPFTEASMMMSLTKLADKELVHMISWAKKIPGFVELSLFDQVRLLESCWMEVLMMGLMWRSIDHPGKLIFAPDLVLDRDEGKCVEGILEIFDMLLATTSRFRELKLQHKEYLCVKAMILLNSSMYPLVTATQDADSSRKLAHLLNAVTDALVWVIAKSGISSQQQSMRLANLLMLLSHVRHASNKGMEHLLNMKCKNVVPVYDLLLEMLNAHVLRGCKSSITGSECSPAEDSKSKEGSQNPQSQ

With `C[C@H]1CCCC(=O)CCC/C=C/c2cc(O)cc(O)c2C(=O)O1` [ZEN, (3S,11E)-3,4,5,6,9,10-Hexahydro-14,16-dihydroxy-3-methyl-1H-2-benzoxacyclotetradecin-1,7(8H)-dione], the half-maximal effective concentration (EC50) at hER-β was found to be 11.5 ± 2.5 nM; at hER-α it was 11.8 ± 1.9 nM. Besides, the “agonist character for ERβ” value in the series with human ERβ is listed as “partial agonist”. Further, the “agonist character for ERα” value in the series on human ERα is recorded as “full agonist”.

As to `[C-]#[O+]` [carbon monoxide], the “effect on formation of OH-ZEN” value in the series on cytochrome P450 (carbon monoxide) is listed as “inhibited”.

As for `CC(=O)N1CCN(c2ccc(OCC3COC(Cn4ccnc4)(c4ccc(Cl)cc4Cl)O3)cc2)CC1` (stereo not shown) [ketoconazole], in the series with cytochrome P450, the “effect on formation of OH-ZEN” value was “inhibited”.

Take `C[C@H]1CCC[C@H](O)CCC/C=C/c2cc(O)cc(O)c2C(=O)O1` [α-ZOL, α-zearalenol]: the “formation rate of ZEN metabolite” value in [1] stood at 3.6 ± 0.3 nmoles/30 min/nmole P450; in series [2], 7.4 ± 0.6 nmoles/30 min/nmole P450; in [3], 3.3 ± 0.5 nmoles/30 min/nmole P450; in [4], 41.3 ± 11.5 nmoles/30 min/nmole P450; in series [5], 4.0 ± 0.4 nmoles/30 min/nmole P450; in [6], 2.5 ± 0.4 nmoles/30 min/nmole P450. Moreover, the “formation rate of ZEN metabolite” value was determined as 2.8 ± 0.3 nmoles/30 min/nmole P450 in [8] and 14.7 ± 2.5 nmoles/30 min/nmole P450 in series [9]. Besides, in series [7], the “metabolite formed in cytosolic fraction” value is “formed”.

`C[C@H]1CCC[C@H](O)CCCCCc2cc(O)cc(O)c2C(=O)O1` [α–ZAL, α-zearalanol]: the EC50 on hER-α (read-out: EC50, half-maximal luciferase activity, transcriptional activation through ER α, HELN ER-α cells, 16 h at 37 °C, maximal activity with 10 nM E2) was determined as 0.49 ± 0.9 nM.

As to β-zearalenol [β-ZOL], the “formation rate of ZEN metabolite” value was determined as 10.0 ± 1.8 nmoles/30 min/nmole P450 in series [2], 0.3 ± 0.1 nmoles/30 min/nmole P450 in series [3], 1.9 ± 0.4 nmoles/30 min/nmole P450 in [6] and 3.3 ± 0.4 nmoles/30 min/nmole P450 in series [10]. For the same compound, the “metabolite formed in cytosolic fraction” value in [7] is on record as “formed”. Moreover, the “metabolite found in post-mitochondrial incubation (fraction S9)” value in [11] is “in association with β-ZOL”.
